Read-outs that look alike come from different tables or passages of the source.
Columns and labels:
[1] = solubility of ionic compounds in fluorobenzene
Experimental: Fluorobenzene was used as solvent because it is chemically similar to the liquid crystalline composition used here.
The examination was made in the following way: always the same mole amount of a ionic compound (0.00004 mol) was placed in 2 cm^3 of fluorobenzene. The mixture was mixed to dissolve the compound or to obtain equilibrium between the saturated solution and the solid. When a part of the compound was dissolved only, the sample of the saturated solution was taken (0.5 ml). The solvent was evaporated to dryness, the rest was weighted. Knowing the residue amount, the solubility was calculated.

[2] = resistivity of fluorobenzene solutions of ionic compounds (bridge method); format: physicochemical; details: for resistivity 10 kHz / resistivity 50 Hz: solution in C6H5F, 25° C.
Experimental: The resistivity of the solution was measured by the bridge method using a Wyne Kerr Precision Component Analyzer 6425 and the measuring cells with electrodes of active area of 12.7 mm×12.7 mm. The electrodes were made of ITO. No orienting layers were deposited. The cell formed with two substrates with electrodes mentioned above was filled with the solution by capillary forces. The gap between electrodes was approx. 14.6 μm.

[3] = conductivity of doped smectic A composition 18 in 15 μm cell; format: physicochemical; details: prepared in fluorobenzene, 100 Hz, RT
Excerpt: The glass cells with a gap of 15 μm filled with the liquid crystal composition were used to measure conductivity and such a parameters of the DS effect as threshold voltage and saturation voltage. […] The orienting layer providing a homeotropic orientation of the molecular director of the smectic composition was obtained using a thin layer of SE1211 (by Nissan Chem.) polyimide, which was deposited on ITO electrodes with a spincoating method, then dried and cured. The testing cells were filled with the liquid crystals composition from the isotropic phase, and they were cooled to the room temperature (RT) and closed.
The components were carefully mixed and then heated to temperature of 90° C. to evaporate the solvent. Then heating was continued under lower pressure (at 0.2 mmHg) for the total removal of the solvent and the composition was carefully mixed by shaking it at the isotropic state. […]

[4] = conductivity of doped smectic A composition 21 in 15 μm cell; format: physicochemical; details: RT
Excerpt: The glass cells with a gap of 15 μm filled with the liquid crystal composition were used to measure conductivity and such a parameters of the DS effect as threshold voltage and saturation voltage. Transparent electrodes were formed from indium-tin oxide (ITO) of specific resistivity 100 Ohm/cm^2 and with surface 1.27×1.27 cm^2. The orienting layer providing a homeotropic orientation of the molecular director of the smectic composition was obtained using a thin layer of SE1211 (by Nissan Chem.) polyimide, which was deposited on ITO electrodes with a spincoating method, then dried and cured. The testing cells were filled with the liquid crystals composition from the isotropic phase, and they were cooled to the room temperature (RT) and closed.
In Table 6 the properties of the composition 21 doped with an amidinium salt or potassium complex of a crown ether are compared. The composition 21 has the phase sequence Cr-SmA1-N-Iso and the higher value of dielectric anisotropy than composition 18.

[5] = solubility in organic solvents noted at synthesis; format: physicochemical; details: solvents named in the value
[6] = composition 18, dopant 8.78 · 10^−3 mol/kg
[7] = composition 21, dopant 6.58 · 10^−3 mol/kg, f = 100 Hz
[8] = composition 18, dopant 6.58 · 10^−3 mol/kg

| Molecule | solubility in C6H5F ([1]; fluorobenzene, 25° C.) [mol/dcm^3] | resistivity 10 kHz [2] | resistivity 50 Hz [2] | conductivity σ [3, 6] | solubility in C6H5F [1] | other results |
| --- | --- | --- | --- | --- | --- | --- |
| CCCCCCCCCCCCc1ccc(S(=O)(=O)[O-])cc1.[K+].c1ccc2c(c1)OCCOCCOc1ccccc1OCCOCCO2 [IVg12, Complex of dibenzo-18-crown-6 ether with potassium 4-dodecylbenzenesulphonate] | >0.02 | 4.5 · 10^5 Ohm · cm | 6.0 · 10^5 Ohm · cm | 2.7 · 10^−10 Ohm^−1cm^−1 |  | specific conductivity σ [4, 7]: 4.68 · 10^−10 Ohm^−1cm^−1 |
| C1COCCOCCOCCOCCOCCO1.[K+].[O-]c1ccc(F)c(F)c1 [IIIk, complex of 18-crown-6 ether with potassium 3,4-difluorophenolate] | > 0.02 |  |  |  |  | conductivity σ [3, 8]: 2.7 · 10^−9 Ohm^−1cm^−1; conductivity σ ([3]; composition 18, dopant 6.58 · 10^−3 mol/kg, listed as III.k): 2.7·10^−9 Ohm^−1cm^−1 |
| complex of 18-crown-6 ether with potassium bromide [IIIb] |  |  |  |  |  | conductivity σ [3, 8]: 1.1 · 10^−9 Ohm^−1cm^−1 |
| 1-hexadecyl-1,8-diazabicyclo[5.4.0]undec-7-enium 3,4-difluorophenolate [II.16k] |  |  |  |  | >0.02 >0.02 >0.02 >0.02 mol/dcm^3 |  |
| CCCCCCCCCCCCCCCC[N+]1=C2CCCCCN2CCC1 [II.16d, 1-hexadecyl-1,8-diazabicyclo[5.4.0]undec-7-enium 1,1,1-trifluoromethanesulphonate] |  |  |  |  | >0.02 >0.02 >0.02 >0.02 mol/dcm^3 |  |
| 1-hexadecyl-1,8-diazabicyclo[5,4,0]undec-7-enium 3,5-difluoro-4-cyanophenolate [II.16n] |  | 3.8 · 10^5 Ohm · cm | 3.9 · 10^5 Ohm · cm | 1.8 · 10^−8 Ohm^−1cm^−1 | >0.02 mol/dcm^3 | resistivity of I.16b, times higher than that of the compound ([2]; solution in fluorobenzene): 140 times |
| complex of dibenzo-18-crown-6 ether with potassium bromide [IVb] |  |  |  |  |  | conductivity σ [3, 8]: 2.2 · 10^−10 Ohm^−1cm^−1 |
| C1COCCOCCOCCOCCOCCO1.CCCCCCCCCCCCc1ccc(S(=O)(=O)[O-])cc1.[K+] [III.g12, complex of 18-crown-6 ether with potassium 4-dodecylbenzenesulphonate] | >0.02 |  |  |  |  | specific conductivity σ ([4]; composition 21, 0.1 wt % dopant + 0.3 wt % stabilizer of formula 29, f = 100 Hz): 7.0 · 10^−9 Ohm^−1cm^−1 |
| N#Cc1c(F)cc([O-])cc1F.[K+].c1ccc2c(c1)OCCOCCOc1ccccc1OCCOCCO2 [IVn, complex of dibenzo-18-crown-6 ether with potassium 3,5-difluoro-4-cyanophenolate] | >0.02 | 4.6 · 10^5 Ohm · cm | 4.2 · 10^5 Ohm · cm | 8.1 · 10^−9 Ohm^−1cm^−1 |  | conductivity σ ([3]; composition 18, dopant 2.19 · 10^−3 mol/kg): 2.19 · 10^−9 Ohm^−1cm^−1 |
| 1-hexadecyl-1,8-diazabicyclo[5.4.0]undec-7-enium 4-dodecylbenzenesulphonate [II.16g12] | >0.02 | 1.9 · 10^6 Ohm · cm | 2.1 · 10^6 Ohm · cm | 1.1 · 10^−9 Ohm^−1cm^−1 |  | specific conductivity σ [4, 7]: 7.42 · 10^−10 Ohm^−1cm^−1 |
| [K+].[O-]c1ccc(F)c(F)c1.c1ccc2c(c1)OCCOCCOc1ccccc1OCCOCCO2 [IVk, complex of dibenzo-18-crown-6 ether with potassium 3,4-difluorophenolate] | > 0.02 | 0.95 · 10^6 Ohm · cm | 1.1 · 10^6 Ohm · cm | 4.1 · 10^−9 Ohm^−1cm^−1 |  |  |
| CCCCCCCCc1ccc([O-])cc1.[K+].c1ccc2c(c1)OCCOCCOc1ccccc1OCCOCCO2 [IVh8, complex of dibenzo-18-crown-6 ether with potassium 4-octylphenolate] | 0.0107 |  |  | 1.4 · 10^−10 Ohm^−1cm^−1 |  |  |
| CCCCCCCCCCCCCCCC[N+]1=C2CCCCCN2CCC1 [II.16b, 1-hexadecyl-1,8-diazabicyclo[5.4.0]undec-7-enium bromide] |  |  |  |  | >0.02 >0.02 >0.02 >0.02 mol/dcm^3 | solubility [5]: well soluble in methanol and chloroform |
| CCCCCCCCCCCCCCCC[N+](C)(C)C.[Br-] [I.16b, hexadecyltrimethylammonium bromide, reference compound] |  | 5.2 · 10^7 Ohm · cm | 5.0 · 10^7 Ohm · cm |  | 0.00274 mol/dcm^3 | solubility compared with the ionic compounds of the disclosure [1]: lower at least ten times |
| complex of dibenzo-18-crown-6 ether with potassium chlorate (VII) [IVc] | < 0.002 | 2.9 · 10^7 Ohm · cm | 4.2 · 10^7 Ohm · cm | 1.5 · 10^−10 Ohm^−1cm^−1 |  | resistivity ([2]; solution in fluorobenzene, frequency not stated): 4.2·10^7 Ohm·cm |
| CC[N+]12CCCCCC1=NCCC2.[Br-] (stereo not shown) [II.2b, 1-ethyl-1,8-diazabicyclo[5.4.0] undec-7-enium bromide] | 0.0077 |  |  |  |  | solubility [5]: well soluble in ethanol and ethyl acetate; conductivity σ [3, 8]: 3.0 · 10^−9 Ohm^−1cm^−1 |
| complex of 18-crown-6 ether with sodium dodecyl-1-sulphonate [V.e12] |  |  |  |  |  | conductivity σ [3, 8]: 3.7 · 10^−10 Ohm^−1cm^−1 |
| CCCCCCCCCCCCCCCC[N+]1=C2CCCCCN2CCC1 [II.16c, 1-Hexadecyl-1,8-diazabicyclo[5.4.0]undec-7-enium chlorate (VII)] |  | 0.84 · 10^6 Ohm · cm | 1.0 · 10^6 Ohm · cm | 4.6 · 10^−10 Ohm^−1cm^−1 | >0.02 >0.02 >0.02 >0.02 mol/dcm^3 | solubility [5]: well soluble in methanol and ethyl acetate |
